Source: patent publication US20240108654A1, “COMBINATION OF A T CELL THERAPY AND A DGK INHIBITOR” (Juno Therapeutics, Inc., priority 2021, published 2024)
Read-outs that look alike come from different tables or passages of the source.

How the values were obtained:
human DGKα = human DGKα (Homo sapiens (Human), UniProt P23743); assay: DGKα liposome (LIPGLO) in vitro DGK inhibition assay; type: biochemical; conditions: extruded liposome substrate; 150 μM ATP; 5 nM enzyme; read-out: DGKa LIPGLO IC50
Chain of human DGKα (P23743 other isoform, or with tags, fused parts or gaps): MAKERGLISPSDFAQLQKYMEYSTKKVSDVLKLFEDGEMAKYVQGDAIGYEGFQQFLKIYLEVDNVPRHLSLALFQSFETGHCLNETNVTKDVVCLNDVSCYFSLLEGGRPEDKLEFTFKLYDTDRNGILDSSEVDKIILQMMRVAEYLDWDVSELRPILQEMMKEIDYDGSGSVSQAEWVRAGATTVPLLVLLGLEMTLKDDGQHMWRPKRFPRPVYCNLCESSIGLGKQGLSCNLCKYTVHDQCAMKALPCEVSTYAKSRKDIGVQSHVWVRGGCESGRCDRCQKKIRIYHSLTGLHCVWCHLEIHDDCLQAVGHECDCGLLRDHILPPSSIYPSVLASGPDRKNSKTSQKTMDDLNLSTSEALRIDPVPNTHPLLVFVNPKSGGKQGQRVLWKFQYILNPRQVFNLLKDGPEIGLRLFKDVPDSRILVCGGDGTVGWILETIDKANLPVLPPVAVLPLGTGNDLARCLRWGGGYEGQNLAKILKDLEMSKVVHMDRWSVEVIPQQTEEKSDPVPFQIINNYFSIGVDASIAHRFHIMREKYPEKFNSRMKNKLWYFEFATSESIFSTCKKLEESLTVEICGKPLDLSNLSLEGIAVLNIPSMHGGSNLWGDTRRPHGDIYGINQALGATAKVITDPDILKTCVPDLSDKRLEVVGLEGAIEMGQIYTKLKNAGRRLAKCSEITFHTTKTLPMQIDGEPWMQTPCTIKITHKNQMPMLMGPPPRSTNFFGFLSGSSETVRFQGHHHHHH
Method: The DGKα and DGKζ reactions were performed using either extruded liposome (DGKα and DGKζ LIPGLO assays) or detergent/lipid micelle substrate (DGKα and DGKζ assays). The reactions were carried out in 50 mM MOPS pH 7.5, 100 mM NaCl, 10 mM MgCl2, 1 μM CaCl2), and 1 mM DTT (assay buffer). The reactions using a detergent/lipid micelle substrate also contained 50 mM octyl B-D-glucopyranoside. The lipid substrate concentrations were 11 mM PS and 1 mM DAG for the detergent/lipid micelle reactions. […] The enzyme concentrations for the DGKα and DGKζ were 5 nM.

human DGKζ = human DGKζ (Homo sapiens (Human), UniProt Q13574); assay: DGKζ liposome (LIPGLO) in vitro DGK inhibition assay; type: biochemical; conditions: extruded liposome substrate; 150 μM ATP; 5 nM enzyme; read-out: DGKz LIPGLO IC50
Chain of human DGKζ (Q13574 other isoform, or with tags, fused parts or gaps isoform Q13574-4): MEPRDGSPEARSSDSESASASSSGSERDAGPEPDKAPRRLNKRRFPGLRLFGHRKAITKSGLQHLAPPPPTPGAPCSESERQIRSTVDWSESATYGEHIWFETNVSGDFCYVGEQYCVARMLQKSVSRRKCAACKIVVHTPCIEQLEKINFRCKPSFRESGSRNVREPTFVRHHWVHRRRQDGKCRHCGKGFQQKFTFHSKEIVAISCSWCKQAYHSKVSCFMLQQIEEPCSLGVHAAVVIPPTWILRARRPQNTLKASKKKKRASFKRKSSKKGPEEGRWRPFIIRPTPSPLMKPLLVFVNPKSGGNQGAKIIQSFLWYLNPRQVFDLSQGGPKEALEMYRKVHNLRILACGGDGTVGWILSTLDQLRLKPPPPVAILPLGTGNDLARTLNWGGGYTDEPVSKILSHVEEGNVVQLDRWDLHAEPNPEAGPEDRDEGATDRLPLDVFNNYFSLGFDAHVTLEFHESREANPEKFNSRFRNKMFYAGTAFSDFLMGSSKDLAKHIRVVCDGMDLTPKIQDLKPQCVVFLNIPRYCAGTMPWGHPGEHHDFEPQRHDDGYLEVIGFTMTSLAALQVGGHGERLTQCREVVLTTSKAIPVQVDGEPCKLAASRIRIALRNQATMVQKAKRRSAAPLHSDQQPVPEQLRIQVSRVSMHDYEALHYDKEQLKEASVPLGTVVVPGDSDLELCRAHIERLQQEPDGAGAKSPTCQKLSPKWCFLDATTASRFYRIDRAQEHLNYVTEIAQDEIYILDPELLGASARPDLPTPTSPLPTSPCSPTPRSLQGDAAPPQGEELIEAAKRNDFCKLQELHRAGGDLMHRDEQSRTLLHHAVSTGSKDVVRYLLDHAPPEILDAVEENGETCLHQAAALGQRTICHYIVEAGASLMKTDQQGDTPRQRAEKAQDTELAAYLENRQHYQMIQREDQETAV
Method: The DGKα and DGKζ reactions were performed using either extruded liposome (DGKα and DGKζ LIPGLO assays) or detergent/lipid micelle substrate (DGKα and DGKζ assays). The reactions were carried out in 50 mM MOPS pH 7.5, 100 mM NaCl, 10 mM MgCl2, 1 μM CaCl2), and 1 mM DTT (assay buffer). The reactions using a detergent/lipid micelle substrate also contained 50 mM octyl B-D-glucopyranoside. The lipid substrate concentrations were 11 mM PS and 1 mM DAG for the detergent/lipid micelle reactions. The lipid substrate concentrations were 2 mM PS, 0.25 mM DAG, and 2.75 mM PC for the extruded liposome reactions. The reactions were carried out in 150 μM ATP. The enzyme concentrations for the DGKα and DGKζ were 5 nM.
The compound inhibition studies were carried out as follows: 50 nL droplets of each test compound (top concentration 10 mM with 11 point, 3-fold dilution series for each compound) solubilized in DMSO were transferred to wells of a white 1536 well plate (Corning 3725). A 5 mL enzyme/substrate solution at 2× final reaction concentration was prepared by combining 2.5 mL 4× enzyme solution (20 nM DGKα or DGKζ (prepared as described below) in assay buffer) and 2.5 mL of either 4× liposome or 4× detergent/lipid micelle solution (compositions described below) and incubated at room temperature for 10 minutes. Next, 1 μL 2× enzyme/substrate solution was added to wells containing the test compound and reactions were initiated with the addition of 1 μL 300 uM ATP. The reactions were allowed to proceed for 1 hr, after which 2 μL Glo Reagent (Promega V9101) was added and incubated for 40 minutes. Next, 4 μL Kinase Detection Reagent was added and incubated for 30 minutes. Luminescence was recorded using an EnVision microplate reader. […] The compounds were evaluated at 11 concentrations to determine IC50.
The lipid composition was 5 mol % DAG (Avanti 8008110), 40 mol % PS (Avanti 840035P), and 55 mol % PC (Avanti 850457) at a total lipid concentration of 15.2 mg/mL for the 4× liposome solution. The PC, DAG, and PS were dissolved in chloroform, combined, and dried in vacuo to a thin film. The lipids were hydrated to 20 mM in 50 mM MOPS pH 7.5, 100 mM NaCl, 5 mM MgCl2, and were freeze-thawed five times. The lipid suspension was extruded through a 100 nm polycarbonate filter eleven times. Dynamic light scattering was carried out to confirm liposome size (50-60 nm radius). The liposome preparation was stored at 4° C. for as long as four weeks.
Human DGK-alpha-TVMV-His-pFBgate and human DGK-zeta-transcript variant-2-TVMV-His-pFBgate baculovirus samples were generated using the Bac-to-Bac baculovirus expression system (Invitrogen) according to the manufacturer's protocol. The DNA used for expression of DGK-alpha and DGK-zeta have SEQ ID NOs: 251 and 252, respectively. Baculovirus amplification was achieved using infected Sf9 cells at 1:1500 virus/cell ratios, and grown for 65 hours at 27° C. post-transfection.
The expression scale up for each protein was carried out in the Cellbag 50 L WAVE-Bioreactor System 20/50 from GE Healthcare Bioscience. 12 L of 2×10^6 cells/mL Sf9 cells (Expression System, Davis, CA) grown in ESF921 insect medium (Expression System) were infected with virus stock at 1:200 virus/cell ratios, and grown for 66-68 hours at 27° C. post-infection. The infected cell culture was harvested by centrifugation at 2000 rpm for 20 min 4° C. in a SORVALL® RC12BP centrifuge. The cell pellets were stored at −70° C. until purification. […]

naïve human CD8 T cells = assay: Human CD8 T cells IFN-γ assay; type: cell-based; conditions: 20 h, anti-CD3 plus anti-CD28 as baseline, 3 μM reference compound as 100% activation, read-out: HuCD8 INFG Normalized EC50
Method: Frozen naïve human CD8 T cells were thawed in AIM-V media, incubated for 2 h in 37° C., and counted. The 384-well tissue culture plate was coated overnight at 4° C. with 20 μL anti-human CD3 at 0.05 μg/mL in PBS, which was removed off the plate before 40,000 cells per 40 microliters CD8 T cells with 0.1 μg/mL soluble anti-human CD28 were added to each well. The compounds were transferred using an Echo liquid handler to the cell plate immediately after the cells were plated. After 20 h incubation at 37° C. incubator, 3 microliters per well supernatants transferred into anew 384-well white assay plate for cytokine measurement.
Interferon-γ (IFN-γ) was quantitated using the AlphLISA kit (Cat #AL217) as described by the manufacturer manual (Perkin Elmer). The counts from each well were converted to IFN-γ concentration (pg/mL).

Human venous whole blood = assay: Human whole blood IFN-γ assay; type: cell-based; conditions: anti-CD3 and anti-CD28 1 μg/mL each, 3 μM reference compound as 100% activation, read-out: INFg Whole Blood Normalized Agonist EC50
Method: Human venous whole blood (22.5 μL per well), obtained from healthy donors, was pre-treated with compounds for one hour at 37° C. in a humidified 95% air/5% CO2 incubator. The blood was stimulated with 2.5 μL anti-human CD3 and anti-CD28 mAb at a final concentration of 1 μg/mL each for 24 hours at 37° C. IFN-γ in the supernatants was measured using ALphLISA kit (Cat #AL217).

[1] = tested on: OT-1 antigen-specific CD8+ T cells with SIINFEKL-loaded MC38 tumor cells; assay: Murine cytotoxic T lymphocyte (CTL) assay, IFN-γ readout; type: cell-based, mouse; conditions: IFN-γ in supernatant after 24 hours, AlphaLisa; read-out: msCTL INFg IC50
From the text: An antigen-specific cytolytic T-cell (CTL) assay was developed to evaluate functionally the ability of DGKα and DGKζ inhibitors to enhance effector T cell mediated tumor cell killing activity. CD8+ T-cells isolated from the OT-1 transgenic mouse recognize antigen presenting cells, MC38, that present the ovalbumin derived peptide […]. Recognition of the cognate antigen initiates the cytolytic activity of the OT-1 antigen-specific CD8+ T cells.
Functional CTL cells were generated as follows: OT-1 splenocytes from 8-12 week old mice were isolated and expanded in the presence of the […] peptide at 1 μg/mL and mIL2 at 10 U/mL. After three days, fresh media with […] was added. On day 5 of the expansion, the CD8+ T cells were isolated and ready for use. Activated CTL cells may be stored frozen for 6 months. Separately, one million MC38 tumor cells were pulsed with 1 μg/mL of […]-OVA peptide for 3 hours at 37° C. The cells were washed (3×) with fresh media to remove excess peptide. Finally, CTL cells that were pretreated with DGK inhibitors for 1 hour in a 96-well U bottom plate were combined with the antigen loaded MC38 tumor cells at a 1:10 ratio. The cells were then spun at 700 rpm for 5 min and placed in an incubator overnight at 37° C. After 24 hours, the supernatant was collected for analysis of IFN-γ cytokine levels by AlphaLisa purchased from Perkin Elmer.

Compound | IC50 (human DGKα) [nM] | IC50 (human DGKζ) [nM] | EC50 (Human venous whole blood; 24 hours) [nM] | also measured
Cc1ccc(C(c2ccc(F)cc2)N2C[C@H](C)N(c3cc(=O)n(C)c4ccc(C#N)nc34)C[C@H]2C)cc1 (stereo partly drawn) [Compound 10, 8-[(2S,5R)-4-[(4-fluorophenyl)(4-methylphenyl)methyl]-2,5-dimethylpiperazin-1-yl]-5-methyl-6-oxo-5,6-dihydro-1,5-naphthyridine-2-carbonitrile] | 670 | 320 |  | EC50 (naïve human CD8 T cells; Homo sapiens, T-cell): 23 nM; EC50 (Human venous whole blood; Homo sapiens, 24 h): 440 nM
CC[C@@H]1CN(c2nc(=O)n(C)c3ccc(C#N)nc23)[C@@H](C)CN1C(C)c1ccc(C(F)(F)F)cc1 (single isomer, unassigned) [Compound 19] |  |  | 520 | 
CC[C@@H]1CN(c2nc(=O)n(C)c3ccc(C#N)nc23)[C@@H](C)CN1C(c1ccc(F)cc1)c1ccc(C(F)(F)F)cn1 (single isomer, unassigned) [Compound 22] |  |  |  | EC50 (Human venous whole blood; Homo sapiens, 24 h): 20 nM
CC[C@@H]1CN(c2nc(=O)n(C)c3ccc(C#N)nc23)[C@@H](C)CN1C(c1ccc(F)cc1)c1ccc(C(F)(F)F)cn1 (stereo partly drawn) [Compound 21, 4-((2S,5R)-5-Ethyl-4-((4-fluorophenyl)(5-(trifluoromethyl)pyridin-2-yl)methyl)-2-methylpiperazin-1-yl)-1-methyl-2-oxo-1,2-dihydropyrido[3,2-d]pyrimidine-6-carbonitrile] |  |  |  | EC50 (Human venous whole blood; Homo sapiens, 24 h): 43 nM
CC[C@@H]1CN(c2nc(=O)n(C)c3ccc(C#N)nc23)[C@@H](C)CN1C(c1ccc(Cl)cc1)c1ccccn1 (single isomer, unassigned) [Compound 24] |  |  | 200 | 
C[C@@H]1CN(c2cc(=O)n(C)c3ccc(C#N)nc23)[C@@H](C)CN1C(c1ccccc1)c1ccc(F)cc1 (stereo partly drawn) [Compound 5, 8-[(2S,5R)-4-[(4-fluorophenyl)(phenyl)methyl]-2,5-dimethylpiperazin-1-yl]-5-methyl-6-oxo-5,6-dihydro-1,5-naphthyridine-2-carbonitrile] | 870 | 1600 |  | 
CCC1CN(C(c2ccc(F)cc2)c2nc(C3CC3)no2)C(CC)CN1c1nc(=O)n(C)c2ccc(C#N)nc12 (single isomer, unassigned) [Compound 26] | 14 | 33 | 90 | 
CC[C@@H]1CN(c2nc(=O)n(C)c3ccc(C#N)nc23)[C@@H](C)CN1C(C)c1ccc(C(F)(F)F)cc1 (single isomer, unassigned) [Compound 20] |  |  | 32 | 
CC[C@@H]1CN(c2nc(=O)n(C)c3ccc(C#N)nc23)[C@@H](C)CN1C(c1ccc(Cl)cc1)c1ccccn1 (single isomer, unassigned) [Compound 23] |  |  | 10500 | 
CCC(c1ccc(F)cc1F)N1C[C@H](C)N(c2cc(=O)n(C)c3ccc(C#N)nc23)C[C@H]1C (mixture of isomers) [Compound 12, 8-((2S,5R)-4-(1-(2,4-difluorophenyl)propyl)-2,5-dimethylpiperazin-1-yl)-5-methyl-6-oxo-5,6-dihydro-1,5-naphthyridine-2-carbonitrile] | 570 | 460 |  | 
CCC(c1ccc(C(F)(F)F)cc1)N1C[C@H](CC)N(c2nc(=O)n(C)c3ccc(C#N)nc23)C[C@H]1CC (stereo partly drawn) [Compound 18, 4-((2S,5R)-2,5-Diethyl-4-(1-(4-(trifluoromethyl)phenyl)propyl)piperazin-1-yl)-1-methyl-2-oxo-1,2-dihydropyrido[3,2-d]pyrimidine-6-carbonitrile] |  |  | 3750 | 
C[C@@H]1CN(c2cc(=O)n(C)c3ccc(C#N)nc23)[C@@H](C)CN1C(c1ccccc1)c1ccc(F)cc1 (single isomer, unassigned) [Compound 7] |  |  | 570 | EC50 (naïve human CD8 T cells): 47 nM; IC50 [1]: 64 nM
CCC1CN(C(c2ccc(F)cc2)c2nc(C3CC3)no2)C(CC)CN1c1nc(=O)n(C)c2ccc(C#N)nc12 (single isomer, unassigned) [Compound 25] | 67 | 29 | 15 | 
